The target of this assay is Nav 1.7 (Homo sapiens (Human), UniProt Q15858). The assay can be described thus: in-vitro Nav 1.7 PX (IC50). Format: cell-based.
[1] abbreviates: in-vitro Nav 1.7 PX data (PatchXpress).

Read-outs that look alike come from different tables or passages of the source.

Sequence of Nav 1.7 (Q15858 whole entry): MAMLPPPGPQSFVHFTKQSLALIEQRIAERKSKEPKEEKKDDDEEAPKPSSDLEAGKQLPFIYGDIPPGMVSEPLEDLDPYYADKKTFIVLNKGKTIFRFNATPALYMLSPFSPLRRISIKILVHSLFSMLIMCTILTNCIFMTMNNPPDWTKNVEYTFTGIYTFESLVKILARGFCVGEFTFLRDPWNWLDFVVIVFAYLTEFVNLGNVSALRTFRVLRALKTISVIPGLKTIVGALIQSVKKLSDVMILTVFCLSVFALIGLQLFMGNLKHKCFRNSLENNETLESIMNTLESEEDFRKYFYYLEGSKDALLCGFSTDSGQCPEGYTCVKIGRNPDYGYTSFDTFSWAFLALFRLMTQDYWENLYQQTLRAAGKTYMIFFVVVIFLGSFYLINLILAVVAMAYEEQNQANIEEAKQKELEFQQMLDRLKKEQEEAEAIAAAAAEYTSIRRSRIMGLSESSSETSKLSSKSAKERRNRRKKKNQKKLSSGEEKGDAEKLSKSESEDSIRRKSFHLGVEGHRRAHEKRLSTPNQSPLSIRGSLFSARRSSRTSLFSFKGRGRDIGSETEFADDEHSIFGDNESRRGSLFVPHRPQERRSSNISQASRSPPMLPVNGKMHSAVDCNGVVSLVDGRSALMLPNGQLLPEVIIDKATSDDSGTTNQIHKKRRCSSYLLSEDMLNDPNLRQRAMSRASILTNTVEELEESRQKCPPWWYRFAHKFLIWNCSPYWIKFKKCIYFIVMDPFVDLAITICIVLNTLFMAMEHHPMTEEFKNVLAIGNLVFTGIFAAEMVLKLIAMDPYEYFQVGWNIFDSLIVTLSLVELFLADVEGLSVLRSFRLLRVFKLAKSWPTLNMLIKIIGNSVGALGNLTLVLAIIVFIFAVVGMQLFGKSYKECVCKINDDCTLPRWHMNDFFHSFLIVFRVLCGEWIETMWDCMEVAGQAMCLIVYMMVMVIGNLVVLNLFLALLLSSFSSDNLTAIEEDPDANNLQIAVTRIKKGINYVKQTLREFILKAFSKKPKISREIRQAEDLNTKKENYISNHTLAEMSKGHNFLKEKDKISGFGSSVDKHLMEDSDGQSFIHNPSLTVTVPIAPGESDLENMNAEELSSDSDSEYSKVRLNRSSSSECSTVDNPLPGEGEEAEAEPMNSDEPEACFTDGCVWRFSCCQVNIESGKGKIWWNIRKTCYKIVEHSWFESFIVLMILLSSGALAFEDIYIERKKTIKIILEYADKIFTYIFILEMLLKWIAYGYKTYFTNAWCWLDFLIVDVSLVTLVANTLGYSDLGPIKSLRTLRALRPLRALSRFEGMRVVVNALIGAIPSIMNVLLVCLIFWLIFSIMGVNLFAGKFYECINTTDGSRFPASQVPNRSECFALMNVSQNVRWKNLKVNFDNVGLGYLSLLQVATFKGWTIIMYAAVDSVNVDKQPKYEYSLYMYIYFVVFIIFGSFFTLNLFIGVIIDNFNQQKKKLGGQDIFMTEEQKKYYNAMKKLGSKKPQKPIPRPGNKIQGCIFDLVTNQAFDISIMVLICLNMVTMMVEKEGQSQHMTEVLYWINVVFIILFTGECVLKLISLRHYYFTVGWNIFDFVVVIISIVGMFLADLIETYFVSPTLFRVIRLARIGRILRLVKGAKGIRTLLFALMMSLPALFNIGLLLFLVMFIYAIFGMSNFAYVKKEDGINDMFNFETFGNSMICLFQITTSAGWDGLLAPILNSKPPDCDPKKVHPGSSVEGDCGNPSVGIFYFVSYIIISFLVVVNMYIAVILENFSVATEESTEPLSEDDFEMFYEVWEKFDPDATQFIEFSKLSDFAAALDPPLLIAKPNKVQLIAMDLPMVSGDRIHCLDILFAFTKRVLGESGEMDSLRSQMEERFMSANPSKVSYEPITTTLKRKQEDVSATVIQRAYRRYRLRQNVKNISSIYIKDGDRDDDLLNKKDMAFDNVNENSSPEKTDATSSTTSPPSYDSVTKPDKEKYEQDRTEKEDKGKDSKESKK

As usually defined, the IC50 is the midpoint of a concentration-inhibition curve. Consider `COc1cc(-c2cc(F)cc(Cl)c2)c(F)cc1-n1c(=O)ccc2cc(S(=O)(=O)Nc3ccon3)ccc21` (atropisomer, axis not shown; (M)) [Example 478, (M)-1-(3′-chloro-2,5′-difluoro-5-methoxy-4-biphenylyl)-N-3-isoxazolyl-2-oxo-1,2-dihydro-6-quinolinesulfonamide], for which the IC50 is 0.816 µM.
As to `COc1cc(-c2ccc(F)c(Cl)c2)c(F)cc1-n1c(=O)ccc2cc(S(=O)(=O)Nc3ccon3)ccc21` (atropisomer, axis not shown; (M)) [Example 366, (M)-1-(3′-chloro-2,4′-difluoro-5-methoxy-4-biphenylyl)-N-3-isoxazolyl-2-oxo-1,2-dihydro-6-quinolinesulfonamide], 1.26 µM corresponded to half-maximal inhibition (in-vitro PatchXpress (PX)) (IC50).
`COc1nc(NC2CCCC2)c(Cl)cc1-n1c(=O)ccc2cc(S(=O)(=O)Nc3ccon3)ccc21` [Example 648, 1-(5-chloro-6-(cyclopentylamino)-2-methoxy-3-pyridinyl)-N-3-isoxazolyl-2-oxo-1,2-dihydro-6-quinolinesulfonamide] yielded an IC50 (in-vitro Nav 1.7 PX data) of 0.984 µM.
On to `COc1nc(OCc2ccc(F)cc2F)c(Cl)cc1-n1c(=O)ccc2cc(S(=O)(=O)Nc3ccon3)ccc21` [Example 1213, 1-(5-chloro-6-((2,4-difluorobenzyl)oxy)-2-methoxy-3-pyridinyl)-N-3-isoxazolyl-2-oxo-1,2-dihydro-6-quinolinesulfonamide], for which the IC50 came to 0.172 µM.
On to `COc1cc(-c2ccc(Cl)c(C#N)c2)c(F)cc1-n1c(=O)ccc2cc(S(=O)(=O)Nc3ncc(F)cn3)ccc21` [Example 893, 1-(4′-chloro-3′-cyano-2-fluoro-5-methoxy-4-biphenylyl)-N-(5-fluoro-2-pyrimidinyl)-2-oxo-1,2-dihydro-6-quinolinesulfonamide], for which it took 0.013 µM to reach half-maximal inhibition (in-vitro Nav 1.7 PX data) (IC50).
On to `COc1cc(-c2cccc(F)c2)c(Cl)cc1-n1c(=O)ccc2cc(S(=O)(=O)Nc3ccon3)c(F)cc21` (atropisomer, axis not shown; (P)) [Example 358, (P)-1-(2-chloro-3′-fluoro-5-methoxy-[1,1′-biphenyl]-4-yl)-7-fluoro-N-(isoxazol-3-yl)-2-oxo-1,2-dihydroquinoline-6-sulfonamide], for which the IC50 turned out to be 4.67 µM.
Turning to `COc1cc(-c2cc(Cl)cnc2OC)c(F)cc1-n1c(=O)ccc2cc(S(=O)(=O)Nc3cc(C)ncn3)ccc21` [Example 777, 1-(4-(5-chloro-2-methoxy-3-pyridinyl)-5-fluoro-2-methoxyphenyl)-N-(6-methyl-4-pyrimidinyl)-2-oxo-1,2-dihydro-6-quinolinesulfonamide], the IC50 (in-vitro Nav 1.7 PX data) turned out to be 0.103 µM.
As for `COc1cc(-c2ccc(Cl)c(C#N)c2)c(F)cc1-n1c(=O)ccc2cc(S(=O)(=O)Nc3ccon3)ccc21` (atropisomer, axis not shown; (M)) [Example 509, (M)-1-(4′-chloro-3′-cyano-2-fluoro-5-methoxy-4-biphenylyl)-N-3-isoxazolyl-2-oxo-1,2-dihydro-6-quinolinesulfonamide], the IC50 (in-vitro PatchXpress (PX)) amounted to 1.68 µM.
In the case of `COc1cc(-c2cccc(C(F)(F)F)n2)c(F)cc1-n1c(=O)ccc2cc(S(=O)(=O)Nc3ccon3)ccc21` [Example 794, 1-(5-fluoro-2-methoxy-4-(6-(trifluoromethyl)-2-pyridinyl)phenyl)-N-3-isoxazolyl-2-oxo-1,2-dihydro-6-quinolinesulfonamide], half-maximal inhibition (in-vitro Nav 1.7 PX data) (IC50) was put at 0.096 µM.
Compound `COc1cc(-c2cc(C)ccc2Cl)ccc1-n1c(=O)ccc2cc(S(=O)(=O)Nc3ccon3)ccc21` [Example 1030, 1-(2′-chloro-3-methoxy-5′-methyl-4-biphenylyl)-N-3-isoxazolyl-2-oxo-1,2-dihydro-6-quinolinesulfonamide] showed an IC50 (in-vitro Nav 1.7 PX data) of 0.012 µM.
For the compound `O=c1ccc2cc(S(=O)(=O)Nc3ncns3)ccc2n1-c1ccc(-c2cc(F)cc(F)c2)cc1C1CC1` [Example 1048, 1-(3-cyclopropyl-3′,5′-difluoro-4-biphenylyl)-2-oxo-N-1,2,4-thiadiazol-5-yl-1,2-dihydro-6-quinolinesulfonamide], under setting [1], it took 0.015 µM to reach half-maximal inhibition (IC50).
As to `COc1cc(-c2cccc(C(F)(F)F)c2)c(F)cc1-n1c(=O)ccc2cc(S(=O)(=O)Nc3ccnc(C)n3)ccc21` [Example 804, 1-(2-fluoro-5-methoxy-3′-(trifluoromethyl)-4-biphenylyl)-N-(2-methyl-4-pyrimidinyl)-2-oxo-1,2-dihydro-6-quinolinesulfonamide], for the setting “in-vitro Nav 1.7 PX data”, 0.014 µM corresponded to half-maximal inhibition (IC50).
For `COc1nc(OCC(F)(F)F)c(Cl)cc1-n1c(=O)ccc2cc(S(=O)(=O)Nc3ccon3)ccc21` [Example 833, 1-(5-chloro-2-methoxy-6-(2,2,2-trifluoroethoxy)-3-pyridinyl)-N-3-isoxazolyl-2-oxo-1,2-dihydro-6-quinolinesulfonamide], the IC50 (in-vitro Nav 1.7 PX data) worked out at 0.565 µM.
The same measure, in the same setting: with `COc1cc(-c2ccc(Cl)c(C)c2)c(F)cc1-n1c(=O)ccc2cc(S(=O)(=O)Nc3ncco3)ccc21` (atropisomer, axis not shown; (P)) [Example 694, (P)-1-(4′-chloro-2-fluoro-5-methoxy-3′-methyl-4-biphenylyl)-N-1,3-oxazol-2-yl-2-oxo-1,2-dihydro-6-quinolinesulfonamide] the figure was 0.027 µM.
Regarding `COc1nc(-c2cccc(F)c2)c(Cl)cc1-n1c(=O)ccc2cc(S(=O)(=O)Nc3ccon3)ccc21` [Example 341, 1-(5-chloro-6-(3-fluorophenyl)-2-methoxypyridin-3-yl)-N-(isoxazol-3-yl)-2-oxo-1,2-dihydroquinoline-6-sulfonamide], the IC50 (in-vitro PatchXpress (PX)) amounted to 0.168 µM.
Consider `COc1cc(-c2cccc(OC)c2F)c(F)cc1-n1c(=O)ccc2cc(S(=O)(=O)Nc3ccon3)ccc21` [Example 734, 1-(2,2′-difluoro-3′,5-dimethoxy-4-biphenylyl)-N-3-isoxazolyl-2-oxo-1,2-dihydro-6-quinolinesulfonamide], for which, under “in-vitro Nav 1.7 PX data”, inhibition was half-maximal at 0.081 µM (IC50).
For `COc1cc(Br)c(Cl)cc1-n1c(=O)ccc2cc(S(=O)(=O)Nc3ccon3)ccc21` (atropisomer, axis not shown; (P)) [Example 473, (P)-1-(4-bromo-5-chloro-2-methoxyphenyl)-N-(isoxazol-3-yl)-2-oxo-1,2-dihydroquinoline-6-sulfonamide], the IC50 was determined as 0.178 µM.
The compound `COc1cc(-c2cccc(OC(F)(F)F)c2)c(F)cc1-n1c(=O)ccc2cc(S(=O)(=O)Nc3ccon3)ccc21` [Example 728, 1-(2-fluoro-5-methoxy-3′-(trifluoromethoxy)-4-biphenylyl)-N-3-isoxazolyl-2-oxo-1,2-dihydro-6-quinolinesulfonamide] yielded an IC50 (in-vitro Nav 1.7 PX data) of 0.008 µM.
Consider `COc1ccc(-c2ccnc(F)c2)cc1-n1c(=O)ccc2cc(S(=O)(=O)Nc3ccon3)ccc21` [Example 496, 1-(5-(2-fluoro-4-pyridinyl)-2-methoxyphenyl)-N-3-isoxazolyl-2-oxo-1,2-dihydro-6-quinolinesulfonamide], for which the IC50 came out at 2.77 µM.
`COc1cc(-c2cccc(C)c2)ccc1-n1c(=O)ccc2cc(S(=O)(=O)Nc3cccnn3)ccc21` [Example 1120, 1-(3-methoxy-3′-methyl-4-biphenylyl)-2-oxo-N-3-pyridazinyl-1,2-dihydro-6-quinolinesulfonamide] gave an IC50 (in-vitro Nav 1.7 PX data) of 0.108 µM.
For `COc1cc(-c2ccc(C(F)(F)F)cc2)c(F)cc1-n1c(=O)ccc2cc(S(=O)(=O)Nc3cc(C)ncn3)ccc21` [Example 798, 1-(2-fluoro-5-methoxy-4′-(trifluoromethyl)-4-biphenylyl)-N-(6-methyl-4-pyrimidinyl)-2-oxo-1,2-dihydro-6-quinolinesulfonamide], under “in-vitro Nav 1.7 PX data”, the IC50 turned out to be 0.049 µM.
Still for that read-out and setting: with `COc1ccc(-c2cccc(Cl)c2)cc1-n1c(=O)ccc2cc(S(=O)(=O)Nc3ccon3)ccc21` [Example 841, 1-(3′-chloro-4-methoxy-3-biphenylyl)-N-3-isoxazolyl-2-oxo-1,2-dihydro-6-quinolinesulfonamide] the figure was 0.027 µM.
Consider `COc1cc(-c2ccc(C)c(F)c2)c(F)cc1-n1c(=O)ccc2cc(S(=O)(=O)Nc3ccon3)ccc21` (atropisomer, axis not shown; (M)) [Example 511, (M)-1-(2,3′-difluoro-5-methoxy-4′-methyl-4-biphenylyl)-N-3-isoxazolyl-2-oxo-1,2-dihydro-6-quinolinesulfonamide], for which, for the setting “in-vitro PatchXpress (PX)”, the IC50 amounted to 8.62 µM.
`COc1nc(C#CC2CCCC2)c(Cl)cc1-n1c(=O)ccc2cc(S(=O)(=O)Nc3cccnn3)ccc21` (atropisomer, axis not shown; (P)) [Example 1240, (P)-1-(5-chloro-6-(cyclopentylethynyl)-2-methoxy-3-pyridinyl)-2-oxo-N-3-pyridazinyl-1,2-dihydro-6-quinolinesulfonamide] registered an IC50 of 0.124 µM.
Under setting [1], `COc1cc(C)ccc1-c1ccc(-n2c(=O)ccc3cc(S(=O)(=O)Nc4ccon4)ccc32)c(OC)c1` [Example 1063, 1-(2′,3-dimethoxy-4′-methyl-4-biphenylyl)-N-3-isoxazolyl-2-oxo-1,2-dihydro-6-quinolinesulfonamide] showed an IC50 of 0.098 µM.
The compound `COc1cc(-c2cccc(C)c2)c(F)cc1-n1c(=O)ccc2cc(S(=O)(=O)Nc3ncon3)ccc21` [Example 1114, 1-(2-fluoro-5-methoxy-3′-methyl-4-biphenylyl)-N-1,2,4-oxadiazol-3-yl-2-oxo-1,2-dihydro-6-quinolinesulfonamide] returned an IC50 (in-vitro Nav 1.7 PX data) of 0.035 µM.
`COc1ccc(-c2cccnc2F)cc1-n1c(=O)ccc2cc(S(=O)(=O)Nc3ccon3)ccc21` [Example 495, 1-(5-(2-fluoro-3-pyridinyl)-2-methoxyphenyl)-N-3-isoxazolyl-2-oxo-1,2-dihydro-6-quinolinesulfonamide] returned an IC50 of 2.45 µM.
The compound `COc1nc(Oc2ccc(F)cc2)c(Cl)cc1-n1c(=O)ccc2cc(S(=O)(=O)Nc3ccon3)ccc21` [Example 1220, 1-(5-chloro-6-(4-fluorophenoxy)-2-methoxy-3-pyridinyl)-N-3-isoxazolyl-2-oxo-1,2-dihydro-6-quinolinesulfonamide] registered an IC50 of 3.1 µM.
Consider `COc1cc(-c2cccc(F)c2)c(Cl)cc1-n1c(=O)cc(C)c2cc(S(=O)(=O)Nc3ccon3)ccc21` [Example 349, M-1-(2-chloro-3′-fluoro-5-methoxy-[1,1′-biphenyl]-4-yl)-N-(isoxazol-3-yl)-4-methyl-2-oxo-1,2-dihydroquinoline-6-sulfonamide], for which it took 10.6 µM to reach half-maximal inhibition (IC50).

The values above are taken from patent US9212182B2, “Bicyclic sulfonamide compounds as sodium channel inhibitors” (AMGEN INC., priority 2013, dated 2015).
